Reference: patent publication US11643393B2, “Integrin antagonists” (The General Hospital Corporation, priority 2018, dated 2023)
“Also recorded” adds a separate entry of the source. Like-named read-outs stand apart in the source and are kept apart here. Positions of bridges follow the written chain, without caps; N, C: chain ends. Non-standard residues stand in square brackets, D forms with d. Residues, ends and D or L forms follow the SMILES beside them. hArg = N=C(N)NCCCC[C@H](N)C(=O)O; Mpa = O=C(O)CCS

Tests used:
αIIbβ3 [1] = target: T1, αIIbβ3 (Homo sapiens, UniProt P05106+P08514); assay: Binding of conformation-sensitive mAbs AP5 / LIBS-1 to human platelets; type: cell-based; settings: for induction of AP5 epitope expression: tirofiban 150 nM
[2] = system: human platelet-rich plasma (PRP); assay: Thrombin-induced clot retraction; type: cell-based; settings: for effect on clot retraction induced by α-thrombin: FIG. 5, tirofiban 1.5 μM, m-tirofiban 15 μM, α-thrombin 0.5 unit/mL; for kinetics of thrombin-induced clot retraction: FIG. 6E, three experiments, vs buffer control
Description: 750 μL of Tyrode's buffer supplemented with inhibitor was mixed in a glass culture tube with 200 μL of PRP and 5 μL red blood cells. Clotting was initiated by addition of 50 μL thrombin at 10 units/ml in saline and a sealed Pasteur pipette secured in the tube center. Digital photographs of the experiment were taken at 15-minute intervals over 2 hours. Images were analyzed with ImageJ software to determine the area occupied by the clot and plasma. Plots of the relative areas and linear regressions were performed with SigmaPlot (Systat Software, San Jose, Calif.).
No ligands were added to the control (FIG. 5C) tube. Photographs were taken immediately after thrombin addition (FIG. 5A) and at the end of the reaction (FIG. 5B). Clot retraction around the central glass rod placed in each glass test tube before thrombin addition is shown. 5 μL of red blood cells were added per 1 mL reaction to enhance the color contrast for photography.
Clot retraction normally helps secure hemostasis in vivo as evidenced by increased bleeding in mice with impaired clot retraction (see e.g., Leon et al, Blood 110, 3183-3191, doi: 10.1182/blood-2007-03-080184 (2007)), or in recipients of any of the three anti-αIIbβ3 drugs (see e.g., Tutwiler et al, Biophys. J. 112, 714-723 (2017); Osdoit et al, J. Biol. Chem. 276, 6703-6710 (2001); Haling et al, Blood 117, 1719-1722 (2011)). The effects of Hr10 and eptifibatide on thrombin-induced clot retraction in fresh human platelet-rich plasma (PRP) (see e.g., Tucker et al, Methods Mol. Biol. 788, 101-107 (2012)) were compared. The kinetics of clot retraction were determined from quantification of serial images of the reaction acquired every 15 minutes for the 2-hour duration of the assay. […] Thrombolysis, 15, 71-80 (2003).

human platelets [3] = assay: ADP-induced ATP secretion from dense granules in whole blood; type: cell-based; settings: 1.5 μM; ADP 20 μM; FIG. 11E
Description: (§1) Platelet aggregation and ATP secretion in whole blood were performed in a Chrono-Log model 700 two-channel lumi-aggregation system following the manufacturer's instructions. Blood was drawn directly into 3.2% sodium citrate from healthy volunteers, and blood was used within 3 hours. None of the subjects were taking any medications for at least 10 days prior. For impedance aggregation measurements, 0.5 mL of blood was mixed with 0.5 mL physiologic saline supplemented with inhibitors and incubated at 37° C. for 5 minutes without stirring. Measurements were performed with stirring at 1,200 rpm at 37° C. Values for each data point represent impedance measurements following application of agonist integrated over 5 minutes. Data points for an individual dose curve were serially collected from a single draw and analyzed with SigmaPlot (Systat Software, San Jose, Calif.) using a least-square fit to a logistic curve and the IC50 value determined from the fitted parameter. ATP secretion proceeded similarly except that 0.45 mL of whole blood were added to 0.45 mL of saline supplemented with various concentrations of Hr10 or eptifibatide to produce the desired concentration at 1.0 mL. Following incubation for 5 minutes at 37° C., 100 μL of Chrono-lume reagent was added and aggregation initiated. The luminescence signal was quantified with a non-aggregated sample supplemented with an ATP standard.

human platelets [4] = assay: ADP-induced surface expression of CD62P and CD63 on platelets; type: cell-based; settings: 1.5 μM; ADP 20 μM; FIG. 11F
Description: αVβ3-K562 cells or transiently transfected HEK293T (0.5×10^6 in 100 μL WB) were incubated in the absence or presence of unlabeled Hr10 or eptifibatide, each at 1.5 μM, for 20 min at RT. Alexa647-labeled AP5 Fab or unlabeled anti-LIBS-1 (each to 10 μg/mL) were added, and cells incubated for an additional 30 min before washing. Alexa647-labeled AP3 was used for normalization of integrin expression. APC-labeled goat anti-mouse Fc-specific antibody was added to anti-LIBS-1-bound cells for an additional 30 min at 4° C., cells washed and processed for flow cytometry. Binding of anti-CD62 and anti-CD63 mAbs to platelets was performed by incubating (20 min, RT) 100 μL of ligand-pretreated 3.2% sodium citrate whole blood with either Alexa488-labeled mAb (at 10 μg/mL) in the presence of 10 μg/mL Alexa647-labeled anti-CD42b. Cells were fixed in 2% paraformaldehyde and CD62 and CD63 expression was analyzed by flow cytometry in the CD42b positive population.

[5] = system: vWF^RH/RH NSG mice infused with human platelets; assay: Cremaster laser-induced arteriolar injury thrombosis in humanized mice; type: in vivo; settings: eptifibatide 5 μg/mouse, Hr10 60 μg/mouse (equimolar), infused 5 min prior to injury; FIG. 13A
Description: Intravital microscopy was performed as previously described (see e.g., Celi et al, J. Thromb. Haemost. 1, 60-68 (2003); and Neyman et al, Blood, 112, 1101-1108 (2008)). vWF^RH/RHNSG male mice were studied after being anesthetized using sodium pentobarbital (80 mg/kg) injected intraperitoneally. Mice were maintained under anesthesia with the same anesthetic delivered via a catheterized jugular vein at 5 mg/mL throughout the experiment. The cremaster muscle was surgically exteriorized and continuously superfused with a physiological buffer (PBS containing 0.9 mM CaCl2 and 0.49 mM MgCl2) maintained at 37° C. throughout the entire experiment and equilibrated with a mixture of 95% N2 and 5% CO2. Human platelets, 400 million per mouse, were labeled with mouse anti-human CD41 F(ab′)2 (BD Biosciences) conjugated to Alexa Fluor-488 and infused into the jugular vein, followed by Alexa Fluor-647 rat anti-mouse CD41 F(ab′)2 (Thermo Fisher) to detect endogenous mouse platelets (see e.g., Fuentes et al, J. Clin. Invest. 126, 483-494 (2016)). Vascular injury was induced with an SRS NL100 pulsed nitrogen dye laser (440 nm) focused on the vessel wall through the microscope objective. […] Intensity of the fluorescent signal was used to measure incorporated platelets (see e.g., Neyman et al, Blood 112, 1101-1108 (2008). Eight injuries were made in each of four mice in each group.

[6] = target: T2, αIIbβ3 on resting platelets (Homo sapiens, UniProt P05106+P08514); settings: Schror & Weber 2003, read-out: affinity of eptifibatide to αIIbβ3 on resting platelets (kD); cited from earlier work
T2 construct: host or cells: resting platelets

αIIbβ3 [7] = target: T1, αIIbβ3; assay: Displacement of labeled fibrinogen binding to αIIbβ3-K562 cells (flow cytometry); parameters: expressed in transfected cells; host or cells: K562
Description: For ligand binding competition studies, 100 μL of PT-25-activated αIIbpβ3-K562 (1×10^6) were incubated for 30 minutes at RT with serially diluted concentrations of Hr10, hFN10, or eptifibatide in the presence of 0.5 μM Alexa647-conjugated FB. Cells were washed, fixed in 2% paraformaldehyde and analyzed by flow cytometry. Ligand binding was expressed as […] of cells in the absence of competitor ligands. Mean and SD from three independent experiments were calculated, and compared using Student's t-test.

human platelets [8] = assay: Agonist-induced platelet aggregation in whole human blood (impedance, Chrono-Log 700); type: cell-based; settings: for IC50: Homo sapiens, Platelet
Description: as §1
Platelet aggregation was measured in whole blood by impedance increase with a Chrono-log model 700 according to the manufacturer's protocol. Citrated whole blood was diluted with an equal volume of physiologic saline (Sigma) and incubated for 5 min at 37° C. without stirring. Inhibitors were added to final concentration and the cuvette stirred at 1,200 rpm. Following establishment of stable baseline, ADP (20 μM) was added and tracings recorded for 6 min. The extent of aggregation was determined as the integrated impedance over 5 min.

αIIbβ3 [9] = target: T1, αIIbβ3; assay: Displacement of labeled Hr10 binding to inactive or PT-25-activated αIIbβ3-K562 cells (FACS); parameters: expressed in transfected cells; host or cells: K562; settings: for IC50: Alexa488-labeled Hr10, 1 mM Mg2+ and Ca2+
Description: […] Cells were washed, fixed in 2% paraformaldehyde and analyzed by flow cytometry. Ligand binding was expressed as […] of cells in the absence of competitor ligands. Mean and SD from three independent experiments were calculated, and compared using Student's t-test.

[10] = FIG. 6D, M-tirofiban 1.5 μM, human platelets

T1 sequence (P08514 32-887 limits assumed): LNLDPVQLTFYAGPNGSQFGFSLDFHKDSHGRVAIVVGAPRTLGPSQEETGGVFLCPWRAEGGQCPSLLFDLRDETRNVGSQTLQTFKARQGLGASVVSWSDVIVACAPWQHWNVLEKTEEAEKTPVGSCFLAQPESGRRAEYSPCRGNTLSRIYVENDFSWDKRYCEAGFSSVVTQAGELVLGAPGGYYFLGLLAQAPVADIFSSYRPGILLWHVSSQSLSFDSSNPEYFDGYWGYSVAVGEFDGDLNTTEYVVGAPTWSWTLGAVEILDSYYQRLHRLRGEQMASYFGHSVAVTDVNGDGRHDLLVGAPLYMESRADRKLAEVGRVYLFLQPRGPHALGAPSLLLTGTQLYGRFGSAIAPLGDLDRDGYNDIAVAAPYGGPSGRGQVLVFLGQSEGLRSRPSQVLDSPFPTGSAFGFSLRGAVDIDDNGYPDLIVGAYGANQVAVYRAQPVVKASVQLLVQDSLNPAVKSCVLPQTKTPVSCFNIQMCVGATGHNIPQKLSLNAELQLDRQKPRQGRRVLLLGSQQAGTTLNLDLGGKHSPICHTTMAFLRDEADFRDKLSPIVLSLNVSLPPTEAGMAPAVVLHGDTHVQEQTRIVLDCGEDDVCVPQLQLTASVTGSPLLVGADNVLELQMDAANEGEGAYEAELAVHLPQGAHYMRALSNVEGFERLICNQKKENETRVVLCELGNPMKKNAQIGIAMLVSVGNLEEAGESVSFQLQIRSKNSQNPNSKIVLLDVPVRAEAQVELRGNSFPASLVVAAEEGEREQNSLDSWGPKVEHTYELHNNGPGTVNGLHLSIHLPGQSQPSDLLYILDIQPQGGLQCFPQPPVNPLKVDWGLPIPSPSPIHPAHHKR
T1 sequence (P08514 891-1039 partner limits assumed): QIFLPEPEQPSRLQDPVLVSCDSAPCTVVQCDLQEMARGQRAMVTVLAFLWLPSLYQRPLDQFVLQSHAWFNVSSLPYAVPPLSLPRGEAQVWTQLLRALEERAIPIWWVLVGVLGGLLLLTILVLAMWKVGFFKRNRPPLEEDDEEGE
T1 sequence (P05106 27-788): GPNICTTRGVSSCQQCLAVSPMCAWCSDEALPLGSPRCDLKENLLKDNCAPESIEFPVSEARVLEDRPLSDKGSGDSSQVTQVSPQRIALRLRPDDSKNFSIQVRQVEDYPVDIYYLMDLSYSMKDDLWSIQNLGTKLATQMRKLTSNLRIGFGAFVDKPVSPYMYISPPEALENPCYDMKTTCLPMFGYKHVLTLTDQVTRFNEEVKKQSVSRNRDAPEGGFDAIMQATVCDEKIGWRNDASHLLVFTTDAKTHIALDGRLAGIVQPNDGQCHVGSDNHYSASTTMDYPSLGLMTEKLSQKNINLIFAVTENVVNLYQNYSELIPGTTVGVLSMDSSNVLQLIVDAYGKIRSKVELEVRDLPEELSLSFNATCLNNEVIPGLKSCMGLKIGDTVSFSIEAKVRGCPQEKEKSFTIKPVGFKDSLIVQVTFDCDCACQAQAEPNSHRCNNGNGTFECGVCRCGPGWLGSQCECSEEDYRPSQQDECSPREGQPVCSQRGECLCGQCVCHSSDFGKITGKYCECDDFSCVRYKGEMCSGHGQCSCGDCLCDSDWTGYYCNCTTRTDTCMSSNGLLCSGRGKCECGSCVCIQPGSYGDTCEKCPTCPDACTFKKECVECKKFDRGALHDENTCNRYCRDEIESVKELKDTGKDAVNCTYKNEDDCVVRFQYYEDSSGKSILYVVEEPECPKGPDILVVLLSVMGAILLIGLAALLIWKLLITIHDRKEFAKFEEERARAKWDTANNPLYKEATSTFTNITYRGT
T2 sequence (P08514 32-887 limits assumed): as the sequence (P08514 32-887 limits assumed) above
T2 sequence (P08514 891-1039 partner limits assumed): as the sequence (P08514 891-1039 partner limits assumed) above
T2 sequence (P05106 27-788): as the sequence (P05106 27-788) above

Row | SMILES | conformational changes in αIIbβ3 reported by binding of mAbs AP5 and LIBS-1 (αIIbβ3 [1]; FIG. 8D, 1.5 μM, human platelets, absence or presence of 5 μM ADP) | kinetics of thrombin-induced clot retraction vs. buffer ([2]; FIGS. 12A-12B, fresh human PRP, 2-hour assay) | inhibition of ADP-induced ATP secretion from dense granules in whole blood (human platelets [3]) [%] | ADP-induced secretion from platelet α-granules (CD62P expression) and lysosomes (CD63 expression) (human platelets [4]) | nascent occlusive thrombus formation at sites of laser-induced arteriolar injury [5] | Kd [6] [nM] | IC50 (αIIbβ3 [7]; FIG. 8C, preactivated αIIbβ3-K562, mean S.E., n=3, read-out: IC50, inhibition of binding of Alexa647-labeled soluble FB to activated αIIbβ3) [nM] | IC50 (human platelets [8]; read-out: IC50, human platelet aggregation induced by ADP) [nM] | reduction in affinity of M-tirofiban vs. tirofiban (human platelets [8]; from fibrinogen displacement and platelet aggregation assays) [fold] | activating conformational changes in αIIbβ3 reported by AP5 binding (αIIbβ3 [1]; FIG. 4, human platelets in PRP, saturating amounts, absence or presence of 20 μM ADP) | effect on ADP-induced AP5 expression (αIIbβ3 [1]; FIG. 6D, M-tirofiban 1.5 μM, ADP 5 μM added before or after) | induction of AP5 epitope expression (αIIbβ3 [1]; [10]) | effect on clot retraction induced by α-thrombin [2] | kinetics of thrombin-induced clot retraction [2] | IC50 (αIIbβ3 [7]; FIG. 6B, mean±S.E., n=4 experiments, read-out: IC50, displacement of labeled fibrinogen bound to preactivated αIIbβ3-K562) [nM] | binding affinity to inactive vs. active αIIbβ3 (αIIbβ3 [9]; FIGS. 6F-6G, 12C) | IC50 (αIIbβ3 [9]; active αIIbβ3, read-out: IC50, displacement of labeled Hr10 binding to mAb PT-25-activated αIIbβ3-K562) [nM] | IC50 (αIIbβ3 [9]; inactive αIIbβ3, read-out: IC50, displacement of labeled Hr10 binding to inactive αIIbβ3-K562) [nM] | IC50 (human platelets [8]; FIG. 6C, ADP 20 μM, mean±S.E., n=5, three donors, read-out: IC50, human platelet aggregation induced by ADP) [nM] | IC50 (human platelets [8]; summary of FIGS. 6B-6C, ADP 20 μM, read-out: Prevention of ADP-induced human platelet aggregation, concentration range) [nM]
1 | N=C(N)NCCCC[C@@H]1NC(=O)CCSSC[C@@H](C(N)=O)NC(=O)[C@@H]2CCCN2C(=O)[C@H](Cc2c[nH]c3ccccc23)NC(=O)[C@H](CC(=O)O)NC(=O)CNC1=O [eptifibatide] ([Mpa][hArg]GDWPC-NH2; disulfide 1-7) | induced conformational changes in αIIbβ3 | clot retraction was significantly reduced vs buffer; also recorded: significantly blocked clot retraction | 60±200 | did not significantly alter | completely preventing nascent occlusive thrombus formation | 120 | 73.2 ± 7 |  |  |  |  |  |  |  |  |  |  |  |  | 
2 | O=C(N[C@@H](Cc1ccc(OCCCCC2CCNCC2)cc1)C(=O)O)c1nc2ccccc2o1 [M-tirofiban, OC(═O)[C@H](CC1═CC═C(OCCCCC2CCNCC2)C═C1)NC(═O)C1═NC2═C(O1)C ═CC═C2] |  |  |  |  |  |  |  | 18.5 ± 5.4 | ~10 | did not induce the activating shape-shifts | suppressed ADP-induced AP5 expression | did not induce AP5 expression; also recorded: No significant differences were found between B and M | reduced clot retraction minimally | did not; also recorded: not different between buffer control (contr.) and M-tirofiban | 30.9 ± 3.3 | equivalent binding affinities to inactive and active | 247 ± 29.3 | 257 ± 88 |  | 
3 | CCCCS(=O)(=O)N[C@@H](Cc1ccc(OCCCCC2CCNCC2)cc1)C(=O)O [tirofiban] |  |  |  |  |  |  |  |  |  |  |  | induced expression of the AP5 epitope | completely blocked clot retraction | effectively blocked thrombin-induced clot retraction |  |  |  |  | 1.41 ± 0.23 | 1.5 to 2
